From PubChem BioAssay (NCI)
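Exposure lasted 48 hours, with cells grown in 96-well plates and compounds tested at five concentrations. Abbreviation: GI50, concentration required for 50% inhibition of growth. TGI denotes the concentration required for complete inhibition of growth.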

Legend:
Test in all cases: growth of human tumour cells (NCI), 48 h
[1] = tested on: OVCAR-4 ovarian
[2] = tested on: HCC-2998 colon
[3] = tested on: IGROV1 ovarian
[4] = tested on: NCI-H522 lung
[5] = tested on: K-562 leukemia
[6] = tested on: CCRF-CEM leukemia
[7] = tested on: MOLT-4 leukemia
[8] = tested on: COLO 205 colon
[9] = tested on: RXF 393 renal
[10] = tested on: HCT-15 colon
[11] = tested on: KM12 colon
[12] = tested on: UACC-62 melanoma
[13] = tested on: SK-MEL-28 melanoma
[14] = tested on: A498 renal
[15] = tested on: NCI-H226 lung
[16] = tested on: HT29 colon
[17] = tested on: NCI/ADR-RES ovarian
[18] = tested on: UACC-257 melanoma
[19] = tested on: SW-620 colon
[20] = tested on: OVCAR-8 ovarian
[21] = tested on: TK-10 renal
[22] = tested on: HOP-62 NSCLC
[23] = tested on: SF-295 CNS
[24] = tested on: CAKI-1 renal
[25] = tested on: BT-549 breast
[26] = tested on: OVCAR-5 ovarian
[27] = tested on: U251 CNS
[28] = tested on: SK-OV-3 ovarian
[29] = tested on: SR leukemia
[30] = tested on: SNB-75 CNS
[31] = tested on: T-47D breast
[32] = tested on: UO-31 renal
[33] = tested on: LOX IMVI melanoma
[34] = tested on: SK-MEL-5 melanoma
[35] = tested on: SNB-19 CNS
[36] = tested on: HOP-92 NSCLC
[37] = tested on: 786-0 renal
[38] = tested on: EKVX NSCLC
[39] = tested on: NCI-H460 lung
[40] = tested on: MDA-MB-435
[41] = tested on: SN12C renal
[42] = tested on: HCT-116 colon
[43] = tested on: OVCAR-3 ovarian
[44] = tested on: M14 melanoma
[45] = tested on: SK-MEL-2 melanoma
[46] = tested on: A549 NSCLC
[47] = tested on: DU-145 prostate
[48] = tested on: MCF7 breast
[49] = tested on: ACHN renal
[50] = tested on: SF-539 CNS
[51] = tested on: HS 578T breast
[52] = tested on: MDA-MB-231 breast
[53] = tested on: SF-268 CNS
[54] = tested on: RPMI-8226 leukemia
[55] = tested on: HL-60(TB) leukemia
[56] = tested on: PC-3 prostate
[57] = tested on: NCI-H23 lung
[58] = tested on: MALME-3M melanoma

With `Nc1nc(/C=C\c2ccc([N+](=O)[O-])cc2)nc(N2CCN(c3ccccc3)CC2)n1` as the compound, how does the GI50 [1] read?
The GI50 was 53.3 µM.

And the TGI [1]?
Its TGI is > 100 µM.

What about the GI50 [2] of the same compound?
Its GI50 is 41 µM.

And the TGI [2]?
The TGI was 96.2 µM.

And the GI50 [3]?
The GI50 was 20.1 µM.

And the TGI [3]?
The TGI was 54.1 µM.

And the GI50 [4]?
Its GI50 is 18.4 µM.

What about the TGI [4] of the same compound?
Its TGI is 50.5 µM.

What about the GI50 [5] of the same compound?
The GI50 was 26.5 µM.

And the TGI [5]?
The TGI was 79.6 µM.

And the GI50 [6]?
Its GI50 is 23.2 µM.

And the TGI [6]?
The TGI was 74.6 µM.

And the GI50 [7]?
Its GI50 is 27.4 µM.

And the TGI [7]?
The TGI was > 100 µM.

What about the GI50 [8] of the same compound?
The GI50 was 19 µM.

What about the TGI [8] of the same compound?
The TGI was 55.2 µM.

What about the GI50 [9] of the same compound?
Its GI50 is 29.3 µM.

And the TGI [9]?
The TGI was 93 µM.

And the GI50 [10]?
The GI50 was 25.3 µM.

What about the TGI [10] of the same compound?
Its TGI is > 100 µM.

What about the GI50 [11] of the same compound?
Its GI50 is 20.7 µM.

What about the TGI [11] of the same compound?
The TGI was 53.8 µM.

What about the GI50 [12] of the same compound?
The GI50 was 18.9 µM.

And the TGI [12]?
Its TGI is 43.6 µM.

What about the GI50 [13] of the same compound?
Its GI50 is 41.7 µM.

And the TGI [13]?
Its TGI is > 100 µM.

What about the GI50 [14] of the same compound?
Its GI50 is 37.6 µM.

And the TGI [14]?
The TGI was > 100 µM.

And the GI50 [15]?
Its GI50 is 40.8 µM.

What about the TGI [15] of the same compound?
Its TGI is > 100 µM.

What about the GI50 [16] of the same compound?
The GI50 was 35.3 µM.

What about the TGI [16] of the same compound?
The TGI was > 100 µM.

And the GI50 [17]?
The GI50 was 25.3 µM.

And the TGI [17]?
Its TGI is 77.3 µM.

What about the GI50 [18] of the same compound?
Its GI50 is 25.1 µM.

What about the TGI [18] of the same compound?
Its TGI is 61.5 µM.

What about the GI50 [19] of the same compound?
The GI50 was 40.4 µM.

What about the TGI [19] of the same compound?
The TGI was > 100 µM.

What about the GI50 [20] of the same compound?
The GI50 was 29.7 µM.

And the TGI [20]?
Its TGI is > 100 µM.

And the GI50 [21]?
Its GI50 is 20.5 µM.

And the TGI [21]?
Its TGI is 65 µM.

What about the GI50 [22] of the same compound?
Its GI50 is 36.2 µM.

And the TGI [22]?
Its TGI is > 100 µM.

What about the GI50 [23] of the same compound?
Its GI50 is 38.4 µM.

What about the TGI [23] of the same compound?
The TGI was > 100 µM.

What about the GI50 [24] of the same compound?
Its GI50 is 22.5 µM.

And the TGI [24]?
The TGI was 45.8 µM.

What about the GI50 [25] of the same compound?
Its GI50 is 35.7 µM.

What about the TGI [25] of the same compound?
The TGI was > 100 µM.

What about the GI50 [26] of the same compound?
Its GI50 is 89 µM.

And the TGI [26]?
The TGI was > 100 µM.

And the GI50 [27]?
Its GI50 is 38.2 µM.

And the TGI [27]?
The TGI was > 100 µM.

What about the GI50 [28] of the same compound?
The GI50 was 28.7 µM.

And the TGI [28]?
The TGI was 77 µM.

What about the GI50 [29] of the same compound?
Its GI50 is 21.3 µM.

And the TGI [29]?
Its TGI is 60.2 µM.

And the GI50 [30]?
The GI50 was 39.8 µM.

And the TGI [30]?
Its TGI is > 100 µM.

And the GI50 [31]?
The GI50 was 23.1 µM.

And the TGI [31]?
The TGI was 61 µM.

What about the GI50 [32] of the same compound?
The GI50 was 27.7 µM.

What about the TGI [32] of the same compound?
Its TGI is > 100 µM.

What about the GI50 [33] of the same compound?
The GI50 was 30.2 µM.

What about the TGI [33] of the same compound?
Its TGI is > 100 µM.

And the GI50 [34]?
The GI50 was 18.2 µM.

What about the TGI [34] of the same compound?
The TGI was 33.1 µM.

And the GI50 [35]?
The GI50 was > 100 µM.

And the TGI [35]?
The TGI was > 100 µM.

What about the GI50 [36] of the same compound?
The GI50 was 44.2 µM.

And the TGI [36]?
The TGI was > 100 µM.

What about the GI50 [37] of the same compound?
The GI50 was 45.8 µM.

And the TGI [37]?
Its TGI is > 100 µM.

And the GI50 [38]?
Its GI50 is 43.4 µM.

What about the TGI [38] of the same compound?
Its TGI is > 100 µM.

What about the GI50 [39] of the same compound?
The GI50 was 35.5 µM.

And the TGI [39]?
The TGI was > 100 µM.

And the GI50 [40]?
Its GI50 is 20.5 µM.

What about the TGI [40] of the same compound?
Its TGI is 41.7 µM.

And the GI50 [41]?
The GI50 was 42.3 µM.

What about the TGI [41] of the same compound?
The TGI was > 100 µM.

What about the GI50 [42] of the same compound?
The GI50 was 24.8 µM.

And the TGI [42]?
Its TGI is > 100 µM.

What about the GI50 [43] of the same compound?
The GI50 was 26.9 µM.

And the TGI [43]?
Its TGI is 69.6 µM.

What about the GI50 [44] of the same compound?
The GI50 was 25.6 µM.

What about the TGI [44] of the same compound?
Its TGI is 62.9 µM.

What about the GI50 [45] of the same compound?
The GI50 was 30.2 µM.

And the TGI [45]?
Its TGI is 81.3 µM.

What about the GI50 [46] of the same compound?
The GI50 was 38.2 µM.

And the TGI [46]?
Its TGI is > 100 µM.

And the GI50 [47]?
The GI50 was 40 µM.

And the TGI [47]?
Its TGI is > 100 µM.

And the GI50 [48]?
Its GI50 is 34.2 µM.

And the TGI [48]?
Its TGI is > 100 µM.

And the GI50 [49]?
Its GI50 is 30.2 µM.

And the TGI [49]?
The TGI was > 100 µM.

What about the GI50 [50] of the same compound?
The GI50 was > 100 µM.

And the TGI [50]?
Its TGI is > 100 µM.

What about the GI50 [51] of the same compound?
Its GI50 is 80 µM.

And the TGI [51]?
Its TGI is > 100 µM.

And the GI50 [52]?
The GI50 was 20.8 µM.

What about the TGI [52] of the same compound?
Its TGI is 58.1 µM.

And the GI50 [53]?
The GI50 was 96.7 µM.

What about the TGI [53] of the same compound?
The TGI was > 100 µM.

And the GI50 [54]?
The GI50 was 22.9 µM.

What about the TGI [54] of the same compound?
The TGI was > 100 µM.

And the GI50 [55]?
The GI50 was 20 µM.

What about the TGI [55] of the same compound?
The TGI was 58.9 µM.

What about the GI50 [56] of the same compound?
Its GI50 is 23.7 µM.

What about the TGI [56] of the same compound?
Its TGI is 67.6 µM.

What does the source list for `O=C(O)/C(=C/C(=O)c1ccc(Cl)cc1)NNc1ccc([N+](=O)[O-])cc1[N+](=O)[O-]`?
TGI [1]: 42 µM; TGI [2]: > 100 µM; TGI [3]: > 100 µM; TGI [4]: 46 µM; TGI [5]: > 100 µM; TGI [6]: 70 µM; TGI [7]: > 100 µM; TGI [8]: > 100 µM; TGI [10]: > 100 µM; TGI [11]: > 100 µM; TGI [12]: > 100 µM; TGI [13]: > 100 µM; TGI [14]: > 100 µM; TGI [15]: 69.3 µM; TGI [16]: > 100 µM; TGI [17]: > 100 µM; TGI [18]: > 100 µM; TGI [20]: > 100 µM; TGI [21]: > 100 µM; TGI [22]: 70 µM; TGI [23]: > 100 µM; TGI [24]: 46 µM; TGI [25]: 92.5 µM; TGI [26]: > 100 µM; TGI [27]: > 100 µM; TGI [28]: > 100 µM; TGI [29]: > 100 µM; TGI [31]: > 100 µM; TGI [32]: 44.2 µM; TGI [33]: > 100 µM; TGI [57]: > 100 µM; TGI [34]: > 100 µM; TGI [35]: > 100 µM; TGI [36]: 57.1 µM; TGI [37]: 53.4 µM; TGI [38]: > 100 µM; TGI [58]: > 100 µM; TGI [39]: > 100 µM; TGI [40]: > 100 µM; TGI [41]: > 100 µM; TGI [42]: 36.3 µM; TGI [43]: 94.8 µM; TGI [44]: > 100 µM; TGI [45]: > 100 µM; TGI [46]: > 100 µM; TGI [47]: > 100 µM; TGI [48]: > 100 µM; TGI [49]: > 100 µM; TGI [50]: > 100 µM; TGI [51]: 94.4 µM; TGI [52]: > 100 µM; TGI [53]: > 100 µM; TGI [54]: 96.9 µM; TGI [55]: > 100 µM; TGI [56]: > 100 µM
